Experimental data from PubChem BioAssay (NCI).
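Values below derive from 48-hour exposures of cells grown in 96-well plates, with endpoints linearly interpolated between the two concentrations bracketing the appropriate inhibition level. TGI: total growth inhibition.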

Tests used:
Test in all cases: NCI tumour cell line growth inhibition, 48 h
K-562 leukemia = tested on: K-562 leukemia
HOP-92 NSCLC = tested on: HOP-92 NSCLC
TK-10 renal = tested on: TK-10 renal
MCF7 breast = tested on: MCF7 breast
A549 NSCLC = tested on: A549 NSCLC
HS 578T breast = tested on: HS 578T breast
HCT-15 colon = tested on: HCT-15 colon
CAKI-1 renal = tested on: CAKI-1 renal
UACC-62 melanoma = tested on: UACC-62 melanoma
DU-145 prostate = tested on: DU-145 prostate
SN12C renal = tested on: SN12C renal
HCT-116 colon = tested on: HCT-116 colon
A498 renal = tested on: A498 renal

| SMILES | TGI (K-562 leukemia) [µM] | TGI (HOP-92 NSCLC) [µM] | TGI (TK-10 renal) [µM] | TGI (MCF7 breast) [µM] | TGI (A549 NSCLC) [µM] | TGI (HS 578T breast) [µM] | TGI (HCT-15 colon) [µM] | TGI (CAKI-1 renal) [µM] | TGI (UACC-62 melanoma) [µM] | TGI (DU-145 prostate) [µM] | TGI (SN12C renal) [µM] | TGI (HCT-116 colon) [µM] | TGI (A498 renal) [µM] |
| --- | --- | --- | --- | --- | --- | --- | --- | --- | --- | --- | --- | --- | --- |
| NC(N)=N/N=C/c1c(Cl)nc2n1CCS2 | > 100 | > 100 | > 100 | > 100 | > 100 | > 100 | > 100 | > 100 | > 100 | > 100 | > 100 | 73.7 | > 100 |
| COc1ccc(/C=N/n2c(Cc3ccccc3)n[nH]c2=O)c(OC)c1 | > 100 | > 75 | 84.1 | > 100 | > 58.4 | 37.5 | > 100 | > 100 | > 100 | > 100 | > 100 | > 55.1 | > 66 |
| CCOP(=O)(OCC)/C(C#N)=C/c1cccn1C |  | > 100 | > 100 | > 100 | > 100 | > 100 | > 100 | > 100 | > 100 | > 100 | > 100 | > 100 | > 100 |
| CCN1C(c2ccccc2)=CC(c2ccccc2)(C(Cl)(Cl)Cl)C=C1c1ccccc1 | > 100 | 25.8 | > 100 | > 100 | > 100 | > 100 | > 100 | > 100 |  | > 100 | > 100 | 29.3 | 54.4 |
| COP(=O)(OC)[C@@](O)(c1ccccc1)[C@@H](O)[C@@H](O)c1ccccc1 |  | > 100 | > 100 | 83.8 | > 100 | > 100 | > 100 | > 100 | > 100 | > 100 | > 100 | > 100 | > 100 |
| CC1CCC2C(C(=O)O[C@H]3C4C=CO[C@@H](OC5OC(CO)C(O)C(O)C5O)C4[C@@]4(CO)O[C@@H]34)=CO[C@@H](OC3OC(CO)C(O)C(O)C3O)C12 (stereo partly specified) | > 10 | > 10 | > 10 | > 10 | > 10 | > 10 | > 10 | > 10 | > 10 | > 10 | > 10 | > 10 | > 10 |
| CC(=O)/C=C1/C(=O)C(CC(C)C)=C1CC(C)C |  | > 100 | > 100 | > 100 | > 100 | > 100 | > 100 | > 100 | > 100 | > 100 | > 100 | > 100 | > 100 |
| N#Cc1ccccc1NC(=O)C(O)C(O)C(O)C(O)C=O (stereo unspecified) | > 100 | > 100 | > 100 | > 100 | > 100 | > 100 | > 100 | > 100 | > 100 | > 100 | > 100 | > 100 | > 100 |
| O=C(Cn1c(C(=O)/C=C/c2ccc(Cl)c(Cl)c2)nc2ccccc21)c1ccccc1 | > 100 | 96.1 | 76.6 | 82.2 | 59.8 | 56.1 | 91.6 |  | > 100 | > 100 | 34.4 | 35.1 | 67.4 |
| Cc1ccc2c(n1)C(=O)c1cc(C)c(C)cc1C2=O | > 100 | > 100 | > 100 | > 100 | > 100 | > 100 | > 100 | > 100 | > 100 | > 100 | > 100 | > 100 | > 100 |
| CCCCCCCCCCCC(=O)OCC(O)CO (stereo unspecified) |  | > 100 | > 100 | > 100 | > 100 | > 100 | > 100 | > 100 | > 100 | > 100 | > 100 | > 100 | > 100 |
| Clc1nc(NC23CC4CC(CC(C4)C2)C3)nc(NC23CC4CC(CC(C4)C2)C3)n1 | 47 | > 100 | > 100 | > 100 | > 100 | > 100 | > 100 | > 100 | > 100 | > 100 | > 100 | > 100 | > 100 |
| CCc1n[nH]c(=O)n1N | > 100 | > 100 | > 100 | > 100 | > 100 | > 100 | > 100 | > 100 | > 100 | > 100 | > 100 | > 100 | > 100 |
| NC(N)=NS(=O)(=O)c1ccc(NCc2cccc3c(=O)c4ccc(Cl)cc4oc23)cc1 | > 25 | 17.8 | > 14.5 | > 25 | > 25 | 13.9 | > 20 | > 15 | > 24.1 | 17.3 | > 14.2 | > 22.4 | > 15.3 |
